These results are taken from US20110065756A1, “METHODS AND COMPOSITIONS FOR TREATMENT OF OBESITY-RELATED DISEASES” (priority 2009, published 2011).

The conditions of data set [1]: clinical use; cited from earlier work.
Data set [2] is described as follows: Rosiglitazone treatment of diet-induced obese mice: body weight, fasting plasma glucose and insulin, IPGTT. It is filed as in vivo. The settings on record: obese C57BL/6J mice, 10 mg/kg/day by gavage, vs vehicle.
Description: Ten adult (6 week-old) male C57BL/6J mice were purchased from the Jackson Laboratory. Mice were housed in a pathogen-free barrier facility (12 h light/12 h dark cycle). […] Mice were weighed every 4 weeks. After 12 weeks blood was collected after a 6 hour fast and plasma glucose levels were analyzed using the Accu-Check glucose meter. Subsequently, mice were treated with rosiglitazone (10 mg/kg/day in 1% carboxymethylcellulose in water) or vehicle by gavaging for 10 days. On day 10 the animals were subjected to an intraperitoneal glucose tolerance test (IPGTT) after a 16 hr overnight fast. Plasma glucose levels were determined at 0, 15, 30, 60 and 120 min using an Accu-Check glucose meter; at each time point 10 μl blood was collected in EDTA-coated tubes (Microvette CB300, Sarstedt, Newton, N.C.) for determination of insulin levels using an ELISA specific for mouse insulin (Alpco Diagnostics, Salem, N.H.). After the IPGTT, mice received a final treatment with rosiglitazone or vehicle (day 11) and were euthanized the next day (day 12) after a 6 hour fast under anaesthesia with isoflurane (Baxter). The epididymal fat pads, subcutaneous fat pads, liver and kidneys were harvested and stored at −80° C. for further analysis.
Results are expressed as mean±SEM. […]
For data set [3] the following is noted: RECORD, cited from earlier work.

On to `CN(CCOc1ccc(CC2SC(=O)NC2=O)cc1)c1ccccn1` (centres unmarked) [rosiglitazone], for which, in data set [1], the “incidence of hepatitis and potential liver failure” value is listed as “have not shown higher incidence”. Moreover, in data set [2], the body weight entry was “did not influence weight”. Besides, the “cardiovascular death, myocardial infarction, or stroke” value in data set [3] (5-7 years follow-up, vs active control group) is recorded as “No difference was observed”. The “upper and distal lower limb fracture rates” value in data set [3] (particularly in women) is “increased”. The “heart failure that caused either hospital admission or death” value in data set [3] (rosiglitazone group (29 in active control group)) is 61 patients. Moreover, in data set [3] (vs active control, interval 1.1-4.1), the “risk difference per 1000 person-years for heart failure” value is given as 2.6. Further, in data set [3] (vs active control, interval 1.35-3.27), the “hazard ratio [HR] for heart failure” value was 2.10.
Regarding `CCc1ccc(CCOc2ccc(CC3SC(=O)NC3=O)cc2)nc1` (centres unmarked) [pioglitazone], the “incidence of hepatitis and potential liver failure” value in data set [1] was “have not shown higher incidence”.
